Patent US20020137929A1, “1 - (3-heterocyclylphenyl) isothiourea, -isourea, -guanidine and -amidine herbicidal agents” (Intellectual Property Department, BASF Aktiengesellschaft, priority 1998, published 2002)

Legend:
[1] = system: GLXMAW (Soybean, Williams); test: Preemergence herbicidal evaluation; type: in vivo, Glycine max, (L.) Merr. cv Williams; details: rated 4-5 weeks after treatment; for GLXMAW rating: preemergence, 0-9 scale
Summary of the method: (§1)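 Scores use a 0–9 visual scale covering stand, vigor, malformation, size and chlorosis relative to controls, rated four to five weeks after treatment. Before emergence, soil-planted seeds were sprayed with compound in aqueous acetone at roughly 0.0156–0.500 kg/ha and held in the greenhouse.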

ORYSAT (Rice, Tebonnet) [2] = test: Rice tolerance to post-transplant applications, flooded paddy conditions (Table IV); type: in vivo, Oryza sativa, (L.) Tebonnet
Text: Results of herbicide evaluation are expressed on a rating scale (0-9). The scale is based upon a visual observation of plant stand, vigor, malformation, size, chlorosis and overall plant appearance as compared with a control.
Plastic containers containing weeds which are 3 to 5 cm tall and rice seedlings at the 1.5 to 2.5 leaf stage are flooded with water. The water is maintained at 1.5 to 3 cm above the soil surface for the duration of the experiment. Test compounds are applied as aqueous/ acetone mixtures 50/50 v/v directly into the flood water to provide the equivalent of about 0.0313 to 0.500 kg/ha of active ingredient. The treated containers are placed on greenhouse benches and cared for in accordance with conventional greenhouse procedures. Three to four weeks after treatment, the test is terminated and each container is examined and herbicidal effect rated according to the rating system provided in Example 37. The compounds evaluated are reported by compound number given in Example 37.

MOOVA (Monochoria) = test: Postemergence weed control under flooded paddy conditions; type: in vivo, Monochoria vaginalis; details: postemergence weeds, 3-4 weeks after treatment
Summary of the method: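 Herbicidal effect is judged by eye on a 0–9 scale versus control, 3–4 weeks after dosing. Dosing is into flood water kept 1.5–3 cm over the soil, at about 0.0313–0.500 kg/ha in aqueous/acetone 50/50 v/v, on 3–5 cm weeds and 1.5–2.5-leaf rice seedlings.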

CASOB (Sicklepod) = test: Postemergence herbicidal evaluation; type: in vivo, Cassia obtusifolia; details: for CASOB herbicidal rating / herbicidal rating CASOB: postemergence
Summary of the method: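 Rate range approx. 0.0156–0.500 kg/ha. Foliar application at 40 psi to ~2-week seedlings; surfactant 0.5% TWEEN 20 in 50/50 acetone/water. Evaluation 4–5 wk post-treatment by 0–9 visual injury score, means of replicate tests.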

[3] = system: SAGPY (Arrowhead (Pygmaea)); test: Preemergence weed control under flooded paddy conditions; type: in vivo, Sagittaria pygmaea; details: rated 3-4 weeks after treatment
Summary of the method: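 Silt loam, seeds in top 0.5 cm; flood held 1.5-3 cm; test cpd as acetone/water 50/50 into flood water, ~0.0313-0.500 kg/ha a.i.; greenhouse 3-4 wk; visual 0-9 score vs control.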

ORYSAT (Rice, Tebonnet) [4] = test: Rice tolerance to post-transplant applications, flooded paddy conditions (Table III); type: in vivo, Oryza sativa, (L.) Tebonnet
Summary of the method: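 Injury scored 0-9 by eye against untreated control, judging stand, vigor, malformation, size and chlorosis, three to four weeks after treatment. Compound in 50/50 aqueous/acetone, about 0.0313 to 0.500 kg/ha, was applied to paddy water (1.5 to 3 cm depth) three days after transplanting paired ten-day-old Tebonnet rice seedlings.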

[5] = system: TRZAWR (Wheat, Winter, cv Riband); test: Preemergence herbicidal evaluation; type: in vivo, Triticum aestivum; details: rated 4-5 weeks after treatment; for TRZAWR rating: preemergence, 0-9 scale
Summary of the method: as §1

ORYSAT (Rice, Tebonnet) [6] = test: Preemergence herbicidal evaluation; type: in vivo, Oryza sativa, (L.) Tebonnet; details: rated 4-5 weeks after treatment; for ORYSAT rating: preemergence, 0-9 scale
Summary of the method: as §1

[7] = rate 0.0156 kg/ha, rating scale 0-9
[8] = rate 0.0313 kg/ha, rating scale 0-9
[9] = rate 0.0625 kg/ha, rating scale 0-9
[10] = rate 0.1250 kg/ha, rating scale 0-9
[11] = rate 0.2500 kg/ha, rating scale 0-9

CCOC(=O)CN1C(=O)C(=C(C)C)S/C1=N/c1cc(-n2c(=O)cc(C(F)(F)F)n(C)c2=O)c(F)cc1Cl [Compound 20, Ethyl 2-{{2-chloro-5-[3,6-dihydro-3-methyl-2,6-dioxo-4-(trifluoromethyl)-1(2H)-pyrimidinyl]-4-fluorophenyl}imino}-5-isopropylidene-4-oxo-3-thiazolidineacetate]
2.0: Herbicidal rating ORYSAT (rice tolerance) (ORYSAT (Rice, Tebonnet) [2]; in vivo) | CASOB herbicidal rating (CASOB (Sicklepod); rate 0.0630 kg/ha) | Herbicidal rating ORYSAT (rice tolerance) (ORYSAT (Rice, Tebonnet) [4]; in vivo)
3.0: Herbicidal rating SAGPY ([3]; 0.4630 kg/ha)
0.0: GLXMAW preemergence herbicidal rating ([1]; rate 0.0625 kg/ha) | GLXMAW preemergence herbicidal rating ([1]; rate 0.1250 kg/ha) | CASOB herbicidal rating (CASOB (Sicklepod); rate 0.0158 kg/ha) | CASOB herbicidal rating (CASOB (Sicklepod); rate 0.0315 kg/ha) | Herbicidal rating SAGPY ([3]; 0.1160 kg/ha) | Herbicidal rating SAGPY ([3]; 0.2310 kg/ha) | TRZAWR preemergence herbicidal rating ([5]; rate 0.0625 kg/ha) | TRZAWR preemergence herbicidal rating ([5]; rate 0.1250 kg/ha) | TRZAWR preemergence herbicidal rating ([5]; rate 0.2500 kg/ha) | ORYSAT preemergence herbicidal rating (ORYSAT (Rice, Tebonnet) [6]; rate 0.0625 kg/ha) | ORYSAT preemergence herbicidal rating (ORYSAT (Rice, Tebonnet) [6]; rate 0.1250 kg/ha) | ORYSAT preemergence herbicidal rating (ORYSAT (Rice, Tebonnet) [6]; rate 0.2500 kg/ha)
9.0: Herbicidal rating MOOVA (MOOVA (Monochoria); rate 0.1160 kg/ha) | Herbicidal rating MOOVA (MOOVA (Monochoria); rate 0.2310 kg/ha) | Herbicidal rating MOOVA (MOOVA (Monochoria); rate 0.4630 kg/ha)
4.0: GLXMAW preemergence herbicidal rating ([1]; rate 0.2500 kg/ha)

CCOC(=O)CCN1C(=O)CSC1=Nc1cc(-n2c(=O)cc(C(F)(F)F)n(C)c2=O)c(Cl)cc1Cl [Compound 32, Ethyl 2-{{2,4-dichloro-5-[3,6-dihydro-3-methyl-2,6-dioxo-4-(trifluoromethyl)-1(2H)-pyrimidinyl]-phenyl}imino}-4-oxo-3-thiazolidinepropionate]
4.0: Preemergence herbicidal rating ORYSAT (ORYSAT (Rice, Tebonnet) [6]; rate 0.5000 kg/ha)
1.5: Preemergence herbicidal rating ORYSAT (ORYSAT (Rice, Tebonnet) [6]; rate 0.2500 kg/ha)
3.0: Preemergence herbicidal rating GLXMAW ([1]; rate 0.5000 kg/ha) | Postemergence herbicidal rating CASOB (CASOB (Sicklepod); Rate 0.1250 kg/ha) | Preemergence herbicidal rating TRZAWR ([5]; rate 0.5000 kg/ha)
1.0: Preemergence herbicidal rating GLXMAW ([1]; rate 0.2500 kg/ha) | Preemergence herbicidal rating TRZAWR ([5]; rate 0.2500 kg/ha)
0.5: Preemergence herbicidal rating GLXMAW ([1]; rate 0.0313 kg/ha) | Preemergence herbicidal rating GLXMAW ([1]; rate 0.0625 kg/ha) | Preemergence herbicidal rating GLXMAW ([1]; rate 0.1250 kg/ha)
0.0: Preemergence herbicidal rating GLXMAW ([1]; rate 0.0156 kg/ha) | Herbicidal rating ORYSAT (rice tolerance) (ORYSAT (Rice, Tebonnet) [2]; in vivo) | Postemergence herbicidal rating CASOB (CASOB (Sicklepod); Rate 0.0158 kg/ha) | Postemergence herbicidal rating CASOB (CASOB (Sicklepod); Rate 0.0313 kg/ha) | Postemergence herbicidal rating CASOB (CASOB (Sicklepod); Rate 0.0625 kg/ha) | Herbicidal rating SAGPY ([3]; 0.1250 kg/ha) | Herbicidal rating SAGPY ([3]; 0.2500 kg/ha) | Herbicidal rating ORYSAT (rice tolerance) (ORYSAT (Rice, Tebonnet) [4]; in vivo) | Preemergence herbicidal rating TRZAWR ([5]; rate 0.0156 kg/ha) | Preemergence herbicidal rating TRZAWR ([5]; rate 0.0313 kg/ha) | Preemergence herbicidal rating TRZAWR ([5]; rate 0.0625 kg/ha) | Preemergence herbicidal rating TRZAWR ([5]; rate 0.1250 kg/ha) | Preemergence herbicidal rating ORYSAT (ORYSAT (Rice, Tebonnet) [6]; rate 0.0156 kg/ha) | Preemergence herbicidal rating ORYSAT (ORYSAT (Rice, Tebonnet) [6]; rate 0.0313 kg/ha) | Preemergence herbicidal rating ORYSAT (ORYSAT (Rice, Tebonnet) [6]; rate 0.0625 kg/ha) | Preemergence herbicidal rating ORYSAT (ORYSAT (Rice, Tebonnet) [6]; rate 0.1250 kg/ha)

COC(=O)C1(N2C(=O)CSC2=Nc2cc(-n3c(=O)cc(C(F)(F)F)n(C)c3=O)c(F)cc2Cl)CCCCC1 [Compound 81, Methyl 1-{2-{{2-chloro-5-[3,6-dihydro-3-methyl-2,6-dioxo-4-(trifluoromethyl)-1(2H)-pyrimidinyl]-4-fluorophenyl}imino}-4-oxo-3-thiazolidinyl}-cyclohexanecarboxylate]
3.0: GLXMAW rating ([1]; 0.2500 kg/ha)
5.0: CASOB herbicidal rating (CASOB (Sicklepod); rate 0.0630 kg/ha)
0.0: GLXMAW rating ([1]; 0.0313 kg/ha) | Herbicidal rating ORYSAT (rice tolerance) (ORYSAT (Rice, Tebonnet) [2]; in vivo) | SAGPY herbicidal effect rating ([3]; 0.0625 kg/ha) | SAGPY herbicidal effect rating ([3]; 0.1250 kg/ha) | SAGPY herbicidal effect rating ([3]; 0.2500 kg/ha) | ORYSAT herbicidal effect rating (rice tolerance) (ORYSAT (Rice, Tebonnet) [4]; in vivo) | TRZAWR rating ([5]; 0.0313 kg/ha) | TRZAWR rating ([5]; 0.0625 kg/ha) | ORYSAT rating (ORYSAT (Rice, Tebonnet) [6]; 0.0313 kg/ha) | ORYSAT rating (ORYSAT (Rice, Tebonnet) [6]; 0.0625 kg/ha)
1.0: GLXMAW rating ([1]; 0.1250 kg/ha) | CASOB herbicidal rating (CASOB (Sicklepod); rate 0.0158 kg/ha) | TRZAWR rating ([5]; 0.1250 kg/ha) | TRZAWR rating ([5]; 0.2500 kg/ha) | ORYSAT rating (ORYSAT (Rice, Tebonnet) [6]; 0.1250 kg/ha) | ORYSAT rating (ORYSAT (Rice, Tebonnet) [6]; 0.2500 kg/ha)
2.0: GLXMAW rating ([1]; 0.0625 kg/ha) | CASOB herbicidal rating (CASOB (Sicklepod); rate 0.0315 kg/ha)

CCOP(=O)(CN1C(=O)CSC1=Nc1cc(-n2c(=O)cc(C(F)(F)F)n(C)c2=O)c(F)cc1Cl)OCC [Compound 35, Diethyl {{2-{{2-chloro-5-[3,6-dihydro-3-methyl-2,6-dioxo-4-(trifluoromethyl)-1(2H)-pyrimidinyl]-4-fluorophenyl}imino}-4-oxo-3-thiazolidinyl}methyl}phosphonate]
2.0: Preemergence herbicidal rating GLXMAW ([1]; rate 0.2500 kg/ha) | Herbicidal rating ORYSAT (rice tolerance) (ORYSAT (Rice, Tebonnet) [2]; rate 0.1250 kg/ha, flooded paddy, post-transplant rice, 3-4 weeks after treatment) | Herbicidal rating ORYSAT (rice tolerance) (ORYSAT (Rice, Tebonnet) [4]; 0.1250 kg/ha, post-transplant rice, flooded paddy, rated 3-4 weeks after treatment)
0.0: Preemergence herbicidal rating GLXMAW ([1]; rate 0.0625 kg/ha) | Preemergence herbicidal rating GLXMAW ([1]; rate 0.1250 kg/ha) | Postemergence herbicidal rating CASOB (CASOB (Sicklepod); Rate 0.0158 kg/ha) | Herbicidal rating SAGPY ([3]; 0.1250 kg/ha) | Preemergence herbicidal rating TRZAWR ([5]; rate 0.0625 kg/ha) | Preemergence herbicidal rating ORYSAT (ORYSAT (Rice, Tebonnet) [6]; rate 0.0625 kg/ha) | Preemergence herbicidal rating ORYSAT (ORYSAT (Rice, Tebonnet) [6]; rate 0.1250 kg/ha) | Preemergence herbicidal rating ORYSAT (ORYSAT (Rice, Tebonnet) [6]; rate 0.2500 kg/ha)
9.0: Postemergence herbicidal rating CASOB (CASOB (Sicklepod); Rate 0.0630 kg/ha)
3.0: Herbicidal rating ORYSAT (rice tolerance) (ORYSAT (Rice, Tebonnet) [2]; rate 0.2500 kg/ha, flooded paddy, post-transplant rice, 3-4 weeks after treatment) | Postemergence herbicidal rating CASOB (CASOB (Sicklepod); Rate 0.0315 kg/ha) | Herbicidal rating SAGPY ([3]; 0.2500 kg/ha) | Herbicidal rating ORYSAT (rice tolerance) (ORYSAT (Rice, Tebonnet) [4]; 0.2500 kg/ha, post-transplant rice, flooded paddy, rated 3-4 weeks after treatment) | Preemergence herbicidal rating TRZAWR ([5]; rate 0.2500 kg/ha)
1.0: Preemergence herbicidal rating TRZAWR ([5]; rate 0.1250 kg/ha)

Cn1c(C(F)(F)F)cc(=O)n(-c2cc(N=C3SCC(=O)N3Cc3ccc(S(N)(=O)=O)cc3)c(Cl)cc2F)c1=O [Compound 135, Alpha-{2-{{2-chloro-5-[3,6-dihydro-3-methyl-2,6-dioxo-4-(trifluoromethyl)-1(2H)-pyrimidinyl]-4-fluorophenyl}imino}-4-oxo-3-thiazolidinyl}-p-toluenesulfonamide]
7.0: Preemergence herbicidal rating ORYSAT (ORYSAT (Rice, Tebonnet) [6]; [11])
3.0: Preemergence herbicidal rating GLXMAW [1, 11] | herbicidal effect rating, SAGPY ([3]; 0.0625 kg/ha)
4.0: herbicidal rating CASOB (CASOB (Sicklepod); rate 0.0313 kg/ha) | herbicidal rating CASOB (CASOB (Sicklepod); rate 0.0625 kg/ha)
2.0: herbicidal rating CASOB (CASOB (Sicklepod); rate 0.0156 kg/ha)
5.0: herbicidal effect rating, SAGPY ([3]; 0.1250 kg/ha)
6.0: herbicidal effect rating, SAGPY ([3]; 0.2500 kg/ha)
0.0: Preemergence herbicidal rating GLXMAW [1, 7] | Preemergence herbicidal rating GLXMAW [1, 8] | Preemergence herbicidal rating GLXMAW [1, 9] | herbicidal effect rating, SAGPY ([3]; 0.0313 kg/ha) | herbicidal effect rating, ORYSAT (rice tolerance) (ORYSAT (Rice, Tebonnet) [4]; in vivo) | Preemergence herbicidal rating TRZAWR [5, 7] | Preemergence herbicidal rating TRZAWR [5, 8] | Preemergence herbicidal rating TRZAWR [5, 9] | Preemergence herbicidal rating TRZAWR [5, 10]
1.0: Preemergence herbicidal rating GLXMAW [1, 10] | Preemergence herbicidal rating TRZAWR [5, 11] | Preemergence herbicidal rating ORYSAT (ORYSAT (Rice, Tebonnet) [6]; [7]) | Preemergence herbicidal rating ORYSAT (ORYSAT (Rice, Tebonnet) [6]; [8]) | Preemergence herbicidal rating ORYSAT (ORYSAT (Rice, Tebonnet) [6]; [9]) | Preemergence herbicidal rating ORYSAT (ORYSAT (Rice, Tebonnet) [6]; [10])
